≈ marks a conversion by molar mass, not a printed value. Like-named read-outs stand apart in the source and are kept apart here. Starred links: 1 amine or outer side, 2 acyl side, 3 side chain; linkers in the order of their positions; H or OH if unused. Positions of bridges follow the written chain, without caps; N, C: chain ends. Non-standard residues stand in square brackets, D forms with d. Residues, ends and D or L forms follow the SMILES beside them. X3 = CC(C)CCCCCCC[C@H](CC(=O)[*:1])O[*:2]; X2 = CCCCCCC[C@H](CC(=O)[*:1])O[*:2]; Val(3-OH) = CC(C)(O)[C@H](N)C(=O)O; X1 = C/C=C(/N[*:1])C(=O)[*:2]; Dab = NCC[C@H](N)C(=O)O; Dap = NC[C@H](N)C(=O)O
How the values were obtained:
As. fumigatus = type: cell-based, Aspergillus fumigatus
Source text: (§1) 2015. M7-A10. Methods for dilution antimicrobial susceptibility tests for bacteria that grow aerobically, 10th ed. Approved standard. CLSI, Wayne, Pa.).
(§2) A) In the broth micro-dilution method, the test media were either AM3 Broth (BD Difco Ltd) mixed with phosphate buffered saline (PBS, Amresco LLC, Solon, USA) in 1:4 ratio (E. colt A. baumannii, Enterobacter cloacae, Klebsiella pneumonia and P. aeruginosa), AM3 Broth mixed with PBS in 1:1 ratio (S. aureus) or Malt Extract (ME; 15 g Malt Extract Dico Ltd. in 1000 mL deionized H2O; Aspergillus fumigatus). Prior to MIC-tests, the bacterial cell concentration/fungal spore concentration was adjusted to between 1 and 5×10^5 cells/spores per mL. […] Afterwards, suspensions of pathogen cells in the appropriate medium were dispensed to the wells of microtiter plates and the growth of pathogens were monitored after 16 to 20 h of incubation at 37° C. in the dark. Positive control comprised respective pathogen cells suspended in untreated sterile appropriate media without addition of compounds(s) and negative control comprised the medium only. The MIC was defined as the lowest concentration of each compound with no visible growth of pathogen. All MIC tests were performed in duplicate and/or triplicate and repeated at least twice.

E. coli [1] = type: cell-based, Escherichia coli
Source text: as §1, §2

A. baumannii [2] = type: cell-based, Acinetobacter baumannii
Source text: as §1

A. baumannii [3] = type: cell-based, Acinetobacter baumannii; remark: listed apart in the source
Source text: as §1, §2

HepG2 = tested on: HepG2
Experimental: (§3) IC50, haemolysis rate and frequency of resistance (FoR, Table 4) was determined using standard protocols by different CROs.

[4] = Experimental: as §3
S. aureus [5] = type: cell-based, Staphylococcus aureus
Source text: as §1, §2

P. aeruginosa [6] = type: cell-based, Pseudomonas aeruginosa; conditions: P. aeruginosa EN005, PAO750 (efflux-defective), method B
Source text: as §1

E. cloacae = type: cell-based, Enterobacter cloacae
Source text: as §1, §2

K. pneumoniae [7] = type: cell-based, Klebsiella pneumonia
Source text: as §1, §2

E. coli [8] = type: cell-based, Escherichia coli; conditions: E. coli EN003, D22 (lps mutant, hypersensitive), method B
Source text: as §1

K. pneumoniae [9] = type: cell-based, Klebsiella pneumonia; conditions: K. pneumoniae EN011, 1161486a (efflux-defective), method B
Source text: as §1

S. aureus [10] = type: cell-based, Staphylococcus aureus; remark: listed apart in the source
Source text: as §1

[11] = tested on: carbapenem resistant strains of E. coil, P. aeruginosa and A. baumannii; type: cell-based
Source text: as §1

P. aeruginosa [12] = type: cell-based, Pseudomonas aeruginosa
Source text: as §1, §2

[13] = method A, only lower limit of concentration range shown ("16" means "16-32")

Row | Compound | MIC E. coli LMG15862 (E. coli [1]) [µg/mL] | MIC A. baumannii LMG1041T (A. baumannii [3]) [µg/mL] | IC50 (HepG2) (HepG2) [µg/mL] | MIC S. aureus LMG15975 (S. aureus [5]) [µg/mL] | MIC E. cloacae LMG2783T (E. cloacae) [µg/mL] | MIC K. pneumonia LMG20218 (K. pneumoniae [7]) [µg/mL] | MIC P. aeruginosa LMG6395 (P. aeruginosa [12]) [µg/mL] | MIC E. coli LMG15862 (E. coli [1]; [13]) [µg/mL] | MIC A. baumannii LMG1041T (A. baumannii [3]; [13]) [µg/mL] | IC50 (HepG2) (HepG2; HepG2, determined by a CRO) [µg/mL] | MIC S. aureus LMG15975 (S. aureus [5]; [13]) [µg/mL] | MIC E. cloacae LMG2783T (E. cloacae; [13]) [µg/mL] | MIC K. pneumonia LMG20218 (K. pneumoniae [7]; [13]) [µg/mL] | MIC P. aeruginosa LMG6395 (P. aeruginosa [12]; [13]) [µg/mL] | other results
1 | C/C=C1/NC(=O)[C@H](CCN)NC(=O)[C@H](CC(C)C)NC(=O)[C@H](CN)NC(=O)C[C@@H](CCCCCCC)OC(=O)[C@H](CC(=O)O)NC(=O)[C@H](C(C)(C)O)NC(=O)[C@@H](Cc2ccccc2)NC(=O)[C@H](CN)NC(=O)[C@H]([C@@H](C)O)NC1=O [U747, cyclo-((R)-3-hydroxydecanoyl-L-DAPA-L-Leu-L-DABA-(E)-ABA-L-Thr-L-DAPA-D-Phe-L-OHVal-L-Asp)] ([Dap]L[Dab][X1]T[Dap][dF][Val(3-OH)]D; linker N-C via X2) | 2 (≈ 1.79 µM) | 1 (≈ 0.895 µM) | 50 (≈ 44.8 µM) | >32 | 2 (≈ 1.79 µM) | 2 (≈ 1.79 µM) | 8 (≈ 7.16 µM) |  |  |  |  |  |  |  | MIC (As. fumigatus): 16 to 32 µg/mL; MIC (E. coli [1]): 2 to 4 µg/mL; MIC (A. baumannii [2]): 1 to 2 µg/mL; MIC (A. baumannii [2]; A. baumanii EN007, WT, method B): 8 µg/mL (≈ 7.16 µM); MIC (A. baumannii [2]; A. baumanii EN016, BM4454 8, method B): 8 µg/mL (≈ 7.16 µM); MIC (A. baumannii [2]; A. baumanii EN017, BM4652 (efflux-defective), method B): 8 µg/mL (≈ 7.16 µM); MIC (A. baumannii [3]): 1 to 2 µg/mL; toxicity (IC50) against human cell lines (HepG2): low toxicity; Haemolysis rate ([4]; 100 μM): 0.6%; haemolysis rates ([4]; in words): acceptable; MIC (S. aureus [5]): >32 µg/mL; MIC (P. aeruginosa [6]): 32 µg/mL (≈ 28.6 µM); MIC (E. cloacae): 2 to 4 µg/mL; MIC (K. pneumoniae [7]): 2 to 4 µg/mL; MIC (E. coli [8]): 4 µg/mL (≈ 3.58 µM); MIC (K. pneumoniae [9]): 8 µg/mL (≈ 7.16 µM); MIC (S. aureus [10]): 64 µg/mL (≈ 57.3 µM); MICs against carbapenem resistant strains, highest [11]: 2 to 4 µg/mL; MICs against carbapenem resistant strains, lowest [11]: 0.5 to 1 µg/mL; MIC (P. aeruginosa [12]): 8 to 16 µg/mL
2 | C/C=C1/NC(=O)[C@H](CCN)NC(=O)[C@H](CC(C)C)NC(=O)[C@H](CN)NC(=O)C[C@@H](CCCCCCCC(C)C)OC(=O)[C@H](CC(=O)O)NC(=O)[C@H](C(C)(C)O)NC(=O)[C@@H](Cc2ccccc2)NC(=O)[C@H](CN)NC(=O)[C@H]([C@@H](C)O)NC1=O [U773, cyclo-((R)-3-hydroxy-11-methyldodecanoyl-L-DAPA-L-Leu-L-DABA-ABA-L-Thr-L-DAPA-D-Phe-L-OHVal-L-Asp)] ([Dap]L[Dab][X1]T[Dap][dF][Val(3-OH)]D; linker N-C via X3) | 2 (≈ 1.73 µM) | 4 (≈ 3.45 µM) | 8 (≈ 6.9 µM) | 16 (≈ 13.8 µM) | 8 (≈ 6.9 µM) | 16 (≈ 13.8 µM) | 8 (≈ 6.9 µM) |  |  |  |  |  |  |  | 
3 | Table 2 cyclic lipodepsipeptide: R C10H21; Asn-Leu-DABA-ABA-Thr-DAPA-Phe-Val-Asp [U842] |  |  |  |  |  |  |  | 16 | 8 | 22 | 8 | >32 | >32 | 16 | 
4 | Table 2 cyclic lipodepsipeptide: R C9H17; DAPA-Leu-DABA-ABA-Thr-Asn-Phe-Val-Asp [U826] |  |  |  |  |  |  |  | 8 | 8 | 23 | 16 | 16 | >32 | 16 | 
5 | C/C=C1/NC(=O)[C@H](CCN)NC(=O)[C@H](CC(C)C)NC(=O)[C@H](CN)NC(=O)C[C@@H](CCCCCCCC(C)C)OC(=O)[C@H](CC(=O)O)NC(=O)[C@H](C(C)C)NC(=O)[C@@H](Cc2ccccc2)NC(=O)[C@H](CN)NC(=O)[C@H]([C@@H](C)O)NC1=O [U793, cyclo-((R)-3-hydroxy-11-methyldodecanoyl-L-DAPA-L-Leu-L-DABA-ABA-L-Thr-L-DAPA-D-Phe-L-Val-L-Asp)] ([Dap]L[Dab][X1]T[Dap][dF]VD; linker N-C via X3) | 4 (≈ 3.5 µM) | 4 (≈ 3.5 µM) | 9 (≈ 7.87 µM) | >32 | 16 (≈ 14 µM) | >32 | 8 (≈ 7 µM) |  |  |  |  |  |  |  | 
6 | Table 2 cyclic lipodepsipeptide: R C9H17; DAPA-Leu-DABA-ABA-Thr-DAPA-Phe-OHVal-Asp [U757] |  |  |  |  |  |  |  | 8 | 4 | 28 | 16 | 8 | 8 | 8 | 
7 | Table 2 cyclic lipodepsipeptide: R C8H17; DAPA-Leu-DABA-ABA-Thr-DAPA-Phe-OHVal-Asp [U755a] |  |  |  |  |  |  |  | 8 | 8 | 39 | 16 | 8 | 8 | 8 | 
8 | Table 2 cyclic lipodepsipeptide: R C8H17; DAPA-Leu-DABA-ABA-Thr-DAPA-Phe-OHVal-Asp [U754] |  |  |  |  |  |  |  | 4 | 2 | 20 | 8 | 4 | 4 | 8 | 
9 | Table 2 cyclic lipodepsipeptide: R C8H17; DAPA-Leu-DABA-ABA-Thr-DAPA-Phe-OHVal-Asp [U755b] |  |  |  |  |  |  |  | 8 | 2 | 34 | 16 | 2 | 8 | 4 | 
10 | Table 2 cyclic lipodepsipeptide: R C8H17; DAPA-Leu-DABA-ABA-Thr-DAPA-Phe-OHVal-Asp [U751] |  |  |  |  |  |  |  | 2 | 4 | 29 | 16 | 4 | 4 | 8 | 
11 | C/C=C1/NC(=O)[C@H](CCN)NC(=O)[C@H](CC(C)C)NC(=O)[C@H](CC(N)=O)NC(=O)C[C@@H](CCCCCCCC(C)C)OC(=O)[C@H](CC(=O)O)NC(=O)[C@H](C(C)C)NC(=O)[C@@H](Cc2ccccc2)NC(=O)[C@H](CN)NC(=O)[C@H]([C@@H](C)O)NC1=O [U824, cyclo-((R)-3-hydroxy-11-methyldodecanoyl-L-Asn-L-Leu-L-DABA-ABA-L-Thr-L-DAPA-D-Phe-L-Val-L-Asp)] (NL[Dab][X1]T[Dap][dF]VD; linker N-C via X3) | 16 (≈ 13.7 µM) | 16 (≈ 13.7 µM) | 35 (≈ 29.9 µM) | >32 | >32 | >32 | >32 |  |  |  |  |  |  |  | 

Reference: patent US20210269483A1, “PEPTIDE COMPOUNDS” (ULTUPHARMA AB, priority 2018, published 2021)
